Experimental data reported in PubChem BioAssay AID505 (SGCOxCompounds, 2006).
Where “and” joins values, the source holds several entries; their conditions need not be identical. Equal entries are not always repeated.

biological target: Serine/threonine-protein kinase pim-2 (Homo sapiens) (UniProt Q9P1W9); test: PIM2 kinase ligand binding by thermal shift, biophysical, human, melting temperature shift (AID 505); details: Recombinant PIM2 thermal shift, Tm change; at 10 µM; buffer 10 mM HEPES; pH 7.5; NaCl 100 mM; with 50 µM L-Arg/L-Glu (1:1); stronger effect = higher value
Sequence (Q9P1W9 whole entry, looked up): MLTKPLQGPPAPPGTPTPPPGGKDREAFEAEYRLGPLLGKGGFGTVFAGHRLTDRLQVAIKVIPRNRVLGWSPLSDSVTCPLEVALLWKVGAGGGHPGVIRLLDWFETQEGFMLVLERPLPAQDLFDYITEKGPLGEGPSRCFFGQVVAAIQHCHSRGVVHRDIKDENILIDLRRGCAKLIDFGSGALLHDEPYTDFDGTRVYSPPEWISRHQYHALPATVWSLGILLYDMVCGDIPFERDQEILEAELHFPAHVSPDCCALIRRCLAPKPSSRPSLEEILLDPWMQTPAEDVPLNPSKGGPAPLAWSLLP

SMILES | Tm shift
Clc1cccc(-c2cnc3ccc(NCCc4ccccn4)nn23)c1 | 3.46 Celsius
CN(C)CCCn1cc(C2=C(c3c[nH]c4ccccc34)C(=O)NC2=O)c2ccccc21 | 4.21 Celsius
O=C1NC(=O)c2c1c1c3ccccc3n3c1c1c2c2ccccc2n1[C@@H]1CCC3O1 | 11.1 Celsius
Clc1cccc(-c2cnc3ccc(NC4CCOCC4)nn23)c1 | 5.64 Celsius
CC(=O)c1cccc(-c2cnc3ccc(NCC4CC4)nn23)c1 | 4.29 Celsius
O=c1c(O)c(-c2cc(O)c(O)c(O)c2)oc2cc(O)cc(O)c12 | 4.74 Celsius
O=C1NC(=O)c2c1c1c3ccccc3[nH]c1c1[nH]c3cc(Br)ccc3c21 | 6.31 Celsius
O=C1C(=O)C(c2cc(O)c(O)c(O)c2)Oc2cc(O)cc(O)c21 (configuration not stated) | 4.13 Celsius
NC1=N/C(=C2/CCNC(=O)c3[nH]c(Br)cc32)C(=O)N1 | 3.73 Celsius
Clc1cccc(Nc2ccn3ncc(-c4ccsc4)c3n2)c1 | 3.45 Celsius
Fc1ccc(CNc2ccc3ncc(-c4ccco4)n3n2)cc1 | 3.36 Celsius

same assay, conditions: Recombinant PIM2 thermal shift, Tm change; at 10 µM; buffer 10 mM HEPES; pH 7.5; NaCl 150 mM; with 50 µM L-Arg/L-Glu (1:1); stronger effect = higher value

SMILES | Tm shift
O=c1oc2cc(O)ccc2c2oc3cc(O)ccc3c12 | 4.4 Celsius
FC(F)(F)Oc1cccc(-c2cnc3ccc(NC4CCOCC4)nn23)c1 | 5.78 Celsius
O=C1Nc2ccccc2/C1=C\c1c(Cl)[nH]c2ccccc12 | 3.4 Celsius
O=c1c(-c2ccc(O)cc2)coc2cc(O)cc(O)c12 | 3.3 Celsius
Oc1cc(O)c2c(c1)O[C@H](c1ccc(O)c(O)c1)[C@@H](O)C2 | 3.2 Celsius
CCC(CO)Nc1ccc2ncc(-c3ccc(C(=O)O)cc3)n2n1 (configuration not stated) | 4.94 Celsius
O=C1c2ccccc2-c2n[nH]c3cccc1c23 | 4.6 Celsius
COc1cc(C2Oc3cc(O)cc(O)c3C(=O)C2=O)ccc1O (configuration not stated) | 7.24 Celsius
COc1cc(/C=C/C(=O)CC(=O)/C=C/c2ccc(O)c(OC)c2)ccc1O | 4.3 Celsius
CC(=O)c1cccc(-c2cnc3ccc(N[C@H](CO)C(C)C)nn23)c1 | 3.77 Celsius
O=c1c(O)c(-c2ccc(O)c(O)c2)oc2cc(O)ccc12 | 6.11 Celsius
CCC(CO)Nc1ccc2ncc(-c3cccc(C(C)=O)c3)n2n1 (configuration not stated) | 4.59 Celsius
O=Nc1c(-c2c(O)[nH]c3ccc(S(O)(O)O)cc23)[nH]c2ccccc12 | 4.1 Celsius
CN(C)CCCn1cc(C2=C(c3c[nH]c4ccccc34)C(=O)NC2=O)c2ccccc21 | 6.1 Celsius
O=C1Nc2ccc(I)cc2/C1=C/c1cc(Br)c(O)c(Br)c1 | 10.2 Celsius
O=c1c(-c2ccc(O)cc2)coc2cc(O)ccc12 | 3.3 Celsius
CC(C)[C@@H](CO)Nc1ccc2ncc(-c3cccc(OC(F)(F)F)c3)n2n1 | 4.06 Celsius
O=c1cc(-c2ccc(O)c(O)c2)oc2cc(O)cc(O)c12 | 4.14 Celsius
O=C1NC(=O)C(c2c[nH]c3ccccc23)=C1c1c[nH]c2ccccc12 | 4.02 Celsius
Cc1cc(O)c2c(c1)C(=O)c1cc(O)cc(O)c1C2=O | 4.2 Celsius
O=c1cc(-c2ccc(O)cc2)oc2cc(O)cc(O)c12 | 3.8 Celsius
CC(C)[C@@H](CO)Nc1ccc2ncc(-c3cccc(Cl)c3)n2n1 | 4.69 Celsius
NCCCn1cc(C2=C(c3c[nH]c4ccccc34)C(=O)NC2=O)c2ccccc21 | 5.63 Celsius
NC1=N/C(=C2/CCNC(=O)c3[nH]c(Br)cc32)C(=O)N1 | 3.7 Celsius
Cn1cc(C2=C(c3c4n(c5ccccc35)CCC(CN)C4)C(=O)NC2=O)c2ccccc21 (configuration not stated) | 3.6 Celsius
N#C/C(=C1\Nc2ccccc2S1)c1ccnc(NCCc2cccnc2)n1 | 7.4 Celsius

SMILES | Tm shift
O=C1C(=O)C(c2cccc(O)c2)Oc2ccccc21 (configuration not stated) | 4.5 Celsius
Cc1c(O)cc(O)c2c1OC(c1ccc(O)c(O)c1)C(=O)C2=O (configuration not stated) | 4.1 Celsius
CC(C)[C@@H](CO)Nc1ccc2ncc(-c3cccc(C(F)(F)F)c3)n2n1 | 4.39 Celsius
O=C1C(=O)C(c2ccc(O)cc2)Oc2cc(O)cc(O)c21 (configuration not stated) | 5.62 Celsius
CC(O)(O)C1(O)C[C@@H]2O[C@@]1(C)n1c3ccccc3c3c4c(c5c6ccccc6n2c5c31)C(=O)NC4 (some centres not stated) | 3.79 Celsius
O=C1C(=O)C(c2ccc(O)cc2O)Oc2cc(O)cc(O)c21 (configuration not stated) | 6.2 Celsius
Fc1cccc(-c2cnc3ccc(NC4CCOCC4)nn23)c1 | 3.17 Celsius
CCC(CO)Nc1ccc2ncc(-c3ccc(F)c(Cl)c3)n2n1 (configuration not stated) | 5.54 Celsius
CC1N=C2SC=CN2C(=O)C1CCN1CCC(=C(c2ccccc2)c2ccc(F)cc2)CC1 (configuration not stated) | 4.3 Celsius and 3.8 Celsius
COc1c(C=O)c(O)cc2c1C(=O)c1ccccc1C2=O | 3.3 Celsius
CC(C)(C)c1nc2c3cc[nH]c(=O)c3c3cc(F)ccc3c2[nH]1 | 5.1 Celsius
CCn1cnc2c(Nc3cccc(Cl)c3)nc(N[C@@H]3CCCC[C@@H]3N)nc21 | 5.45 Celsius
O=c1c(O)c(-c2ccc(O)c(O)c2)oc2cc(O)cc(O)c12 | 8.58 Celsius and 7.16 Celsius
O=C1NCc2c1c1c3ccccc3[nH]c1c1[nH]c3ccccc3c21 | 5.2 Celsius
CCC(CO)Nc1ccc2ncc(-c3ccc(O)cc3)n2n1 (configuration not stated) | 4.74 Celsius
Brc1c(Br)c(Br)c2n[nH]nc2c1Br | 4.25 Celsius
N=C(N)SCCCn1cc(C2=C(c3c[nH]c4ccccc34)C(=O)NC2=O)c2ccccc21 | 5.64 Celsius
O=C1C(=O)C(c2ccccc2)Oc2ccc(O)cc21 (configuration not stated) | 3.1 Celsius
O=c1[nH]c(O)c2c1c1c3ccccc3nc1n1cncc21 | 8 Celsius
NCCNc1ncc(C(N)=O)c(Nc2cccc(C(F)(F)F)c2)n1 | 5.8 Celsius
COC(=O)c1cnc2oc3ccc(O)cc3c2c1-c1ccccc1 | 6.25 Celsius
CCN1/C(=C/C(C)=O)Sc2ccc(OC)cc21 | 3.1 Celsius
O=c1c(O)c(-c2ccc(O)cc2)oc2cc(O)cc(O)c12 | 5.81 Celsius
CCC(CO)Nc1ccc2ncc(-c3cccc(OC(F)(F)F)c3)n2n1 (configuration not stated) | 5.92 Celsius
Cc1c2ccncc2c(C)c2c1[nH]c1ccccc12 | 4.8 Celsius
